For assay [1], the system named is MRSA ATCC 33591. Conditions: ATCC 33591. The protocol: (§1) For MIC testing all peptides were dissolved in DMSO (according to the method of L. L. Ling, et al., Nature 2015, 517, 455-459). Bacteria were grown on Mueller Hinton broth (oxoid). All incubations were at 37° C. Dilutions were carried out using Mueller Hinton. 100 μl of autoclaved Mueller Hinton broth was added to wells 2-12 on a 96-well plate. 200 μl of the peptide was added to well one at a concentration of 512 μg/ml. 100 μl of peptide in well one was taken up and pipetted into well two. The mixture was then mixed via pipetting before 100 μl was taken up and pipetted into well three. This process was repeated up to well 11. […] This was repeated three times. The 96-well plates were then incubated for 24 hours. The MIC was determined to be the lowest concentration at which there was no growth visible.

Assay [2] has as its system Bacillus Cereus ATCC 11788. The format is cell-based. The method, then: (§2) Bacteria were grown on Mueller Hinton broth (oxoid). All incubations were at 37° C. Dilutions were carried out using Mueller Hinton. […] This process was repeated up to well 11. […] This was repeated three times. […] Results are tabulated in the Examples.
In assay [3] the test system is Bacillus Subtilis ATCC 6633. It counts as cell-based. The method, then: as §2
Assay [4] concerns SE12228. The format is cell-based. The protocol: as §2
The subject of assay [5] is Staphylococcus saprophyticus ATCC 15305. It counts as cell-based. Conditions: ATCC 15305. The protocol: as §2
Assay [6] has as its system Staphylococcus saprophyticus ATCC 49453. The format is cell-based. Conditions: ATCC 49453. The method, then: as §2
The test system of assay [7] is Staphylococcus saprophyticus ATCC 49907. It counts as cell-based. Conditions: ATCC 49907. The protocol:
as §2

In assay [8] the test system is Staphylococcus saprophyticus ATCC BAA 750. It counts as cell-based. Conditions: ATCC BAA 750. The method, then:
as §2

Assay [9] concerns MRSA ATCC 700699. In words: microbe, parasite or virus in culture. To be noted: ATCC 700699. The method, then: as §1
Assay [10] concerns MRSA DM21455 (eye). In words: microbe, parasite or virus in culture. To be noted: DM21455 (eye). The protocol:
as §1

Assay [11] deals with MRSA DR 42412 (sputum). In words: microbe, parasite or virus in culture. To be noted: DR 42412 (sputum). The method, then:
as §1

Assay [12] concerns Staphylococcus aureus ATCC 29213. The assay can be described thus: microbe, parasite or virus in culture. Conditions: ATCC 29213. The method, then:
as §1

Assay [13] deals with VRE ATCC 29212. In words: microbe, parasite or virus in culture. To be noted: ATCC 29212. The method, then:
as §1

For assay [14], the system named is VRE ATCC 700802. The assay can be described thus: microbe, parasite or virus in culture. To be noted: ATCC 700802. The protocol: as §1
The test system of assay [15] is MRSA 1003. It counts as cell-based, Staphylococcus aureus. The method, then: as §2
Assay [16] has as its system VRE 1001. It counts as cell-based, Enterococcus faecalis. The method, then:
as §2

Assay [17] has as its system VRE 1002. It counts as cell-based, Enterococcus faecalis. The protocol:
as §2

Assay [18] deals with VRE 1004. The format is cell-based, Enterococcus faecalis. The protocol:
as §2

The test system of assay [19] is VRE 1008. It counts as cell-based, Enterococcus faecalis. The method, then:
as §2

Converted amounts (≈) assume the structure as drawn. Bridge positions count the residues as written; N and C are the ends. Square brackets hold non-standard residues; d marks the D form. Peptide text beside a SMILES is read from it. ξ: configuration not given here. dNMeF = CN[C@H](Cc1ccccc1)C(=O)O; Ile(3ξ) = CCC(C)[C@H](N)C(=O)O; Nva = CCC[C@H](N)C(=O)O

These results are taken from US20240327463A1, “ANTIBACTERIAL PRODUCTS” (priority 2017, published 2024).

Consider `CCC(C)[C@@H]1NC(=O)[C@H](C)NC(=O)[C@H](NC(=O)[C@H](CO)NC(=O)[C@@H](NC(=O)[C@H](NC(=O)[C@@H](CCCNC(=N)N)NC(=O)[C@H](CO)NC(=O)[C@@H](NC(=O)[C@@H](Cc2ccccc2)NC)[C@@H](C)CC)[C@H](C)CC)[C@@H](C)CC)[C@H](C)OC(=O)[C@H]([C@@H](C)CC)NC1=O` (stereo partly drawn) [Compound 33, D-Arg4-Ile10-teixobactin], for which, in assay [1], the “MIC (MRSA)” value came to 0.125 µg/mL (≈ 0.102 µM). Further, the MIC in assay [2], in assay [3], in [4], in assay [5], in [6] and in assay [7] was <0.0625 µg/mL in each case. The MIC in [8] was <0.0625 µg/mL; in assay [9], 0.25 µg/mL (≈ 0.203 µM); in assay [10], 0.03125 µg/mL (≈ 0.0254 µM); in assay [11], <0.0625 µg/mL; in assay [12], 0.0625 µg/mL (≈ 0.0508 µM); in [13], 0.25 µg/mL (≈ 0.203 µM). The MIC in [14] is 0.25 µg/mL (≈ 0.203 µM); in assay [15] it was <0.0625 µg/mL; in assay [16], 0.5 µg/mL (≈ 0.407 µM); in [17], 1 µg/mL (≈ 0.813 µM); in assay [18], 0.5 µg/mL (≈ 0.407 µM); in assay [19], 0.5 µg/mL (≈ 0.407 µM).
In the case of `CCCCCCCCCC(=O)N[C@@H](Cc1c[nH]c2ccccc12)C(=O)N[C@H](CC(N)=O)C(=O)N[C@@H](CC(=O)O)C(=O)N[C@@H]1C(=O)NCC(=O)N[C@@H](CCCN)C(=O)N[C@@H](CC(=O)O)C(=O)N[C@H](C)C(=O)N[C@@H](CC(=O)O)C(=O)NCC(=O)N[C@H](CO)C(=O)N[C@@H]([C@H](C)CC(=O)O)C(=O)N[C@@H](CC(=O)c2ccccc2N)C(=O)O[C@@H]1C` [Daptomycin, reference compound], the MIC in assay [9] was 0.25 µg/mL (≈ 0.154 µM); in [10] it was <0.0625 µg/mL; in assay [11] it was <0.0625 µg/mL; in assay [13], 0.25 µg/mL (≈ 0.154 µM); in [14], 0.25 µg/mL (≈ 0.154 µM).
Consider `CCC[C@@H]1NC(=O)[C@H](C)NC(=O)[C@H](NC(=O)[C@H](CO)NC(=O)[C@@H](NC(=O)[C@H](NC(=O)[C@@H](CCC(N)=O)NC(=O)[C@H](CO)NC(=O)[C@@H](NC(=O)[C@@H](Cc2ccccc2)NC)[C@@H](C)CC)[C@H](C)CC)[C@@H](C)CC)[C@H](C)OC(=O)[C@H]([C@@H](C)CC)NC1=O` [Compound 44, Nva10-teixobactin], for which the “MIC (MRSA)” value in assay [1] was determined as 0.5 µg/mL (≈ 0.421 µM).
Same read-out and setting: for `CCC[C@@H]1NC(=O)[C@H](C)NC(=O)[C@H](NC(=O)[C@H](CO)NC(=O)[C@@H](NC(=O)[C@H](NC(=O)[C@@H](CCC(N)=O)NC(=O)[C@H](CCCNC(=N)N)NC(=O)[C@@H](NC(=O)[C@@H](Cc2ccccc2)NC)[C@@H](C)CC)[C@H](C)CC)[C@@H](C)CC)[C@H](C)OC(=O)[C@H]([C@@H](C)CC)NC1=O` [Compound 45, Arg3-Nva10-teixobactin] (H-[dNMeF]IR[dQ][dI]IS[dT]A[Nva]I; ester 8-C) the value was 1 µg/mL (≈ 0.796 µM).
Turning to `CC[C@@H](C)[C@@H](NC(=O)[C@@H](CCC(N)=O)NC(=O)[C@H](CO)NC(=O)[C@@H](NC(=O)[C@@H](Cc1ccccc1)NC)[C@@H](C)CC)C(=O)N[C@@H](C)C(=O)N[C@@H](CO)C(=O)N[C@H]1C(=O)N[C@@H](C)C(=O)N[C@@H](CCCNC(=N)N)C(=O)N[C@@H]([C@@H](C)CC)C(=O)O[C@H]1C` [Compound 12] (H-[dNMeF]IS[dQ][dI]AS[dT]ARI; ester 8-C), the “MIC (MRSA*)” value in assay [1] is >128 µg/mL.
In the case of `CCC[C@@H]1NC(=O)[C@H](C)NC(=O)[C@H](NC(=O)[C@H](CO)NC(=O)[C@@H](NC(=O)[C@H](NC(=O)[C@@H](CCCNC(=N)N)NC(=O)[C@H](CCCNC(=N)N)NC(=O)[C@@H](NC(=O)[C@@H](Cc2ccccc2)NC)[C@@H](C)CC)[C@H](C)CC)[C@@H](C)CC)[C@H](C)OC(=O)[C@H]([C@@H](C)CC)NC1=O` [Compound 48, Arg3-D-Arg4-Nva10-teixobactin] (H-[dNMeF]IR[dR][dI]IS[dT]A[Nva]I; ester 8-C), in assay [1], the “MIC (MRSA)” value is >64 µg/mL.
Take `CC[C@@H](C)[C@@H](NC(=O)[C@@H](CCC(N)=O)NC(=O)[C@H](C)NC(=O)[C@@H](NC(=O)[C@@H](Cc1ccccc1)NC)[C@@H](C)CC)C(=O)N[C@H](C(=O)N[C@@H](CO)C(=O)N[C@H]1C(=O)N[C@@H](C)C(=O)N[C@@H](CCCNC(=N)N)C(=O)N[C@@H]([C@@H](C)CC)C(=O)O[C@H]1C)[C@@H](C)CC` [Compound 9] (H-[dNMeF]IA[dQ][dI]IS[dT]ARI; ester 8-C): in [1], the “MIC (MRSA*)” value is 1 to 2 µg/mL.
As for `CCC[C@@H]1NC(=O)[C@H](CCCNC(=N)N)NC(=O)[C@H](NC(=O)[C@H](CO)NC(=O)[C@@H](NC(=O)[C@H](NC(=O)[C@@H](CCCNC(=N)N)NC(=O)[C@H](CO)NC(=O)[C@@H](NC(=O)[C@@H](Cc2ccccc2)NC)[C@@H](C)CC)[C@H](C)CC)[C@@H](C)CC)[C@H](C)OC(=O)[C@H]([C@@H](C)CC)NC1=O` [Compound 50, D-Arg4-Arg9-Nva10-teixobactin] (H-[dNMeF]IS[dR][dI]IS[dT]R[Nva]I; ester 8-C), the “MIC (MRSA)” value in assay [1] came out at 0.5 µg/mL (≈ 0.384 µM).
In the case of `CC[C@@H](C)[C@@H](NC(=O)[C@@H](CCCNC(=N)N)NC(=O)[C@H](CO)NC(=O)[C@@H](NC(=O)[C@@H](Cc1ccccc1)NC)[C@@H](C)CC)C(=O)N[C@H](C(=O)N[C@@H](CO)C(=O)N[C@H]1C(=O)N[C@@H](C)C(=O)N[C@@H](C)C(=O)N[C@@H]([C@@H](C)CC)C(=O)O[C@H]1C)[C@@H](C)CC` [Compound 53, D-Arg4-Ala10-teixobactin], in assay [1], the “MIC (MRSA)” value was found to be 4 µg/mL (≈ 3.37 µM).
Consider `CCC[C@@H]1NC(=O)[C@H](CCCNC(=N)N)NC(=O)[C@H](NC(=O)[C@H](CO)NC(=O)[C@@H](NC(=O)[C@H](NC(=O)[C@@H](CCC(N)=O)NC(=O)[C@H](CO)NC(=O)[C@@H](NC(=O)[C@@H](Cc2ccccc2)NC)[C@@H](C)CC)[C@H](C)CC)[C@@H](C)CC)[C@H](C)OC(=O)[C@H]([C@@H](C)CC)NC1=O` [Compound 47, Arg9-Nva10-teixobactin] (H-[dNMeF]IS[dQ][dI]IS[dT]R[Nva]I; ester 8-C), for which, in assay [1], the “MIC (MRSA)” value was 0.5 µg/mL (≈ 0.393 µM).
Same read-out and setting: for `CCC(C)[C@@H]1NC(=O)[C@H](C)NC(=O)[C@H](NC(=O)[C@H](CO)NC(=O)[C@@H](NC(=O)[C@H](NC(=O)[C@@H](CCCNC(=N)N)NC(=O)[C@H](CCCNC(=N)N)NC(=O)[C@@H](NC(=O)[C@@H](Cc2ccccc2)NC)[C@@H](C)CC)[C@H](C)CC)[C@@H](C)CC)[C@H](C)OC(=O)[C@H]([C@@H](C)CC)NC1=O` (stereo partly drawn) [Compound 35, Arg3-D-Arg4-Ile10-teixobactin] (H-[dNMeF]IR[dR][dI]IS[dT]A[Ile(3ξ)]I; ester 8-C) the value was 0.5 µg/mL (≈ 0.385 µM).
Turning to `CC[C@@H](C)[C@@H](NC(=O)[C@@H](CCC(N)=O)NC(=O)[C@H](CO)NC(=O)[C@@H](NC(=O)[C@@H](C)NC(C)=O)[C@@H](C)CC)C(=O)N[C@H](C(=O)N[C@@H](CO)C(=O)N[C@H]1C(=O)N[C@@H](C)C(=O)N[C@@H](CCCNC(=N)N)C(=O)N[C@@H]([C@@H](C)CC)C(=O)O[C@H]1C)[C@@H](C)CC` [Compound 7], in assay [1], the “MIC (MRSA*)” value was >128 µg/mL.
As for `CC[C@@H](C)[C@@H](NC(=O)[C@@H](CCC(N)=O)NC(=O)[C@H](CCCNC(=N)N)NC(=O)[C@@H](NC(=O)[C@@H](Cc1ccccc1)NC)[C@@H](C)CC)C(=O)N[C@H](C(=O)N[C@@H](CO)C(=O)N[C@H]1C(=O)N[C@@H](C)C(=O)N[C@@H](C2CCCCC2)C(=O)N[C@@H]([C@@H](C)CC)C(=O)O[C@H]1C)[C@@H](C)CC` [Compound 37, Arg3-Chg10-teixobactin], the “MIC (MRSA)” value in [1] was found to be 0.5 µg/mL (≈ 0.386 µM).
For the compound `CC[C@@H](C)[C@@H](NC(=O)[C@@H](CCC(N)=O)NC(=O)[C@H](CO)NC(=O)[C@@H](NC(=O)[C@@H](Cc1ccccc1)NC)[C@@H](C)CC)C(=O)N[C@H](C(=O)N[C@@H](C)C(=O)N[C@H]1C(=O)N[C@@H](C)C(=O)N[C@@H](CCCNC(=N)N)C(=O)N[C@@H]([C@@H](C)CC)C(=O)O[C@H]1C)[C@@H](C)CC` [Compound 13, reference compound] (H-[dNMeF]IS[dQ][dI]IA[dT]ARI; ester 8-C), in [1], the “MIC (MRSA*)” value was 16 to 32 µg/mL.
